These results are taken from PMC9321722, “Tailored Pyridoxal Probes Unravel Novel Cofactor‐Dependent Targets and Antibiotic Hits in Critical Bacterial Pathogens” (Angewandte Chemie (International Ed. in English), 2022).

A word on the IC50: it is the concentration needed to halve the response being measured.

The target in one test is T1, pdxK (Escherichia coli, UniProt P40191).
T1 construct: pyridoxal kinase used in UV/Vis phosphorylation assay
Briefly: UV/Vis phosphorylation assay. Type of test: biochemical.

The next test has as its target T2, SaPLK (Staphylococcus aureus, UniProt Q5HI96).
T2 construct: gene pdxK; pyridoxal kinase used in UV/Vis phosphorylation assay
T2 sequence (Q5HI96 1-276): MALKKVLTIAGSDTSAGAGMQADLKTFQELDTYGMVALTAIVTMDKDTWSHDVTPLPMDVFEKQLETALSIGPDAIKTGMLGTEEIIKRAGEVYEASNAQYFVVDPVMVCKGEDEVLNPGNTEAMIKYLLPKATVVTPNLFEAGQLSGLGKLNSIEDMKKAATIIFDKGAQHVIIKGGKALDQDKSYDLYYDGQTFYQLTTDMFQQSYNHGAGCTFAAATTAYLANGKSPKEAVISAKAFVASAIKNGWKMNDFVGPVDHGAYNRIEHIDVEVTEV
Briefly: UV/Vis phosphorylation assay. Type of test: biochemical.

Test [1] deals with T3, PA2683 (Pseudomonas aeruginosa, UniProt Q9I0F5).
T3 sequence (Q9I0F5 1-320): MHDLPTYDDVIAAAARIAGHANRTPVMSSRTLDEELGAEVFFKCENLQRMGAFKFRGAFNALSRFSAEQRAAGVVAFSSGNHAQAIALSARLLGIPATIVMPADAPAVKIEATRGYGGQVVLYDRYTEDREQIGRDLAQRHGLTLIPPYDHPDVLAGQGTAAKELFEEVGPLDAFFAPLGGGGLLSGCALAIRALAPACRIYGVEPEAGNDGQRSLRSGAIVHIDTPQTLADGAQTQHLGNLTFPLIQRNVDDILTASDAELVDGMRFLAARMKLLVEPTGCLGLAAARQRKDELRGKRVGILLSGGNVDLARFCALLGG
The test is described as follows: coupled NADH assay and LC-MS/MS of products. Type of test: biochemical.

Test [2] deals with T3, PA2683. Briefly: acceleration of serine/threonine dehydratase activity of overexpressed enzyme. Type of test: biochemical.
The target of a further test is ydcR (Escherichia coli, UniProt P77730). Briefly: intact protein MS of overexpressed protein. Type of test: binding.
ydcR, sequence (P77730 whole entry): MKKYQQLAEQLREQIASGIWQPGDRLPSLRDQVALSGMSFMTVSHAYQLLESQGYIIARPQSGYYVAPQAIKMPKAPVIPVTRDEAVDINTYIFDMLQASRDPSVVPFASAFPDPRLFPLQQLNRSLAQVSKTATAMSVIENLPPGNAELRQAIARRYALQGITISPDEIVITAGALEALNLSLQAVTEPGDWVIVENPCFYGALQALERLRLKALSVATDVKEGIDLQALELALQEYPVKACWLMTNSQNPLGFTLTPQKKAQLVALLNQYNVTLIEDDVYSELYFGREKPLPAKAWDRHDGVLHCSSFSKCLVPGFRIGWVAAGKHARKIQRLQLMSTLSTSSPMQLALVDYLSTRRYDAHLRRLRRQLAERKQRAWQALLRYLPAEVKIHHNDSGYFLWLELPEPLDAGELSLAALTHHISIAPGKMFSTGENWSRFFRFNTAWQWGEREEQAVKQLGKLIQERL
For test [3], the target named is T3, PA2683. The test is described as follows: intact protein MS of overexpressed protein. Type of test: binding.
For test [4], the target named is T4, PA3659 (aminotransferase) (Pseudomonas aeruginosa, UniProt Q9HXY0).
T4 sequence (Q9HXY0 1-402): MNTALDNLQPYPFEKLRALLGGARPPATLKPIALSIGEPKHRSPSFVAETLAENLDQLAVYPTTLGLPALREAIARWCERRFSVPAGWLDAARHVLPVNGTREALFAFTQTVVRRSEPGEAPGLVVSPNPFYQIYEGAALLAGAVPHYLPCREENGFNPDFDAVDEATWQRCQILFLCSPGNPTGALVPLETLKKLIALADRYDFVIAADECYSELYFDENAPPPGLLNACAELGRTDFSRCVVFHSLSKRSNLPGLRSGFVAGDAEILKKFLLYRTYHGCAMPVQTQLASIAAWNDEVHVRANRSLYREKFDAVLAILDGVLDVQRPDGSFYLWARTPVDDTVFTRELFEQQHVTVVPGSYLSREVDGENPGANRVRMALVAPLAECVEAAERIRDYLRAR
Briefly: intact protein MS; UV/Vis of holo-enzyme. Type of test: binding.

Test [5] addresses T5, PA3798 (aminotransferase) (Pseudomonas aeruginosa, UniProt Q9HXJ9).
T5 sequence (Q9HXJ9 1-382): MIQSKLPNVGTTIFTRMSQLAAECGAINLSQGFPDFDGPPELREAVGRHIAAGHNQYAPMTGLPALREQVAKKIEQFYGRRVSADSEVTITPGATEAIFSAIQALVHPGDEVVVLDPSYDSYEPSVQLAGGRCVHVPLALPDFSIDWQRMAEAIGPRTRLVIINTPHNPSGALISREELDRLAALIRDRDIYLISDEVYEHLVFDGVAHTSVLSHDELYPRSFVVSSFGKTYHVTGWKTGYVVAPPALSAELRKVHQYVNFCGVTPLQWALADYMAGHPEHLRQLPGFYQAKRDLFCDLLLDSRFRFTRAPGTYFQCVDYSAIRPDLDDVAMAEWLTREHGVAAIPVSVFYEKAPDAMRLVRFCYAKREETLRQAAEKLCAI
Briefly: intact protein MS; UV/Vis of holo-enzyme. It counts as binding.

In test [6] the target is T6, Orn/Lys/Arg decarboxylase (A0A0H2XII6) (Staphylococcus aureus, UniProt A0A0H2XII6).
T6 construct: gene SAUSA300_0458
T6 sequence (A0A0H2XII6 entry or part of it): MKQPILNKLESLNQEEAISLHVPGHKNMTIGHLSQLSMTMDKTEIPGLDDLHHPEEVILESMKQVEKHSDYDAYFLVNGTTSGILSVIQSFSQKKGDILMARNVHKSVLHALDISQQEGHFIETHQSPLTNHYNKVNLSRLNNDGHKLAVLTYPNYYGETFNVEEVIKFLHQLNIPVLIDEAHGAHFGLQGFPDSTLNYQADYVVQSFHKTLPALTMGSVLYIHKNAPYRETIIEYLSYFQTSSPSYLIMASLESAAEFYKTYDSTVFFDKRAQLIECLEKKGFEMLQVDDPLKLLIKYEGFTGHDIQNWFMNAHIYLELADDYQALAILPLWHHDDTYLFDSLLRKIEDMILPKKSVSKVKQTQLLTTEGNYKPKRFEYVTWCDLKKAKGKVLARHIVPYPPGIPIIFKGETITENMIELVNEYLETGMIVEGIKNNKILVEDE
The test is described as follows: LC-MS/MS quantification of cadaverine formed by overexpressed enzyme; also competitive PL2 profiling in cells. It counts as biochemical.

Test [7] addresses T7, A0A0H2XHJ5 (cysteine desulfurase, sufS) (Staphylococcus aureus, UniProt A0A0H2XHJ5).
T7 construct: with sufU
Briefly: LC-MS quantification of alanine formed from L-Cys by overexpressed enzyme. It counts as biochemical.

T1 sequence (P40191 whole entry): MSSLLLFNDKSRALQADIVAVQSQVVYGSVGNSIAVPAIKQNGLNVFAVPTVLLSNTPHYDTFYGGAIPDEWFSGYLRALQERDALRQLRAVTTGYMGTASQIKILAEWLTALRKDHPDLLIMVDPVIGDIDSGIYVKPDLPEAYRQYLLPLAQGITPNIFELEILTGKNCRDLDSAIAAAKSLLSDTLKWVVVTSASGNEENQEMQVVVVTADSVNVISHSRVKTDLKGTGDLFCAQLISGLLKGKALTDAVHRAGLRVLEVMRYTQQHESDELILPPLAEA
T7 sequence (A0A0H2XHJ5 entry or part of it): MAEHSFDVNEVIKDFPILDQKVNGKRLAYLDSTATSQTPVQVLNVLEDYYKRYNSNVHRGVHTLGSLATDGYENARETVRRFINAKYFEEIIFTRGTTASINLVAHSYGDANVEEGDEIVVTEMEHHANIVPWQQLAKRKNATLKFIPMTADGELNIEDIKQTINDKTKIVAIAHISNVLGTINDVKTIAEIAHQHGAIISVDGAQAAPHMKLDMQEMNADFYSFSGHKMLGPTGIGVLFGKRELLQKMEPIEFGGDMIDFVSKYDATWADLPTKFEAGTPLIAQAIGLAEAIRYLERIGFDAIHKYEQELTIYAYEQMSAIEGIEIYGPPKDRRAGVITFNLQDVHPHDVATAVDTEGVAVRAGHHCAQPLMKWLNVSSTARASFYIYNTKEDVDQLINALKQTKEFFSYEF
T7 sequence (A0A0H2XJC0 entry or part of it, further chain): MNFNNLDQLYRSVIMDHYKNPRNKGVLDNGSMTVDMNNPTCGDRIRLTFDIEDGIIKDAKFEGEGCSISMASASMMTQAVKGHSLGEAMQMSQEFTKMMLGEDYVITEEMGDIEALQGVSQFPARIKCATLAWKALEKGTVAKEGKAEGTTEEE

Consider `C#Cc1nc(C)c(O)c(C=O)c1CO` [PL10], for which the UV/Vis phosphorylation assay result on pdxK is “we observed phosphorylation of all probes except for PL11 and PL12”; at SaPLK, “we observed phosphorylation of all probes except for PL11 and PL12”.

In the case of `N[C@@H](CO)C(=O)O` [L-serine], the “coupled NADH assay and LC-MS/MS of products” value at PA2683 [1] was “The enzyme was overexpressed and indeed turnover of L‐serine was observed together with NADH consumption within a coupled assay”.

For the molecule `C#CCCc1ncc(CO)c(C=O)c1O` [PL2], the UV/Vis phosphorylation assay entry on pdxK was “we observed phosphorylation of all probes except for PL11 and PL12”.

Take `Nc1ncnc2c1ncn2[C@@H]1O[C@H](COP(=O)(O)O)[C@@H](O)[C@H]1O` [adenosine monophosphate]: at PA2683 [2], the “acceleration of serine/threonine dehydratase activity of overexpressed enzyme” value is “the catalysis was accelerated by adding adenosine monophosphate (AMP) and magnesium”.

`Cc1ncc(COP(=O)(O)O)c(C=O)c1O` [pyridoxal phosphate]: the “intact protein MS of overexpressed protein” value at ydcR is listed as “PLP binding of all overexpressed enzymes was confirmed via intact protein MS (IP‐MS, Figure 4A)”; at PA2683 [3] it was “PLP binding of all overexpressed enzymes was confirmed via intact protein MS (IP‐MS, Figure 4A)”. Besides, the “intact protein MS; UV/Vis of holo-enzyme” value in [4] is reported as “PLP binding of all overexpressed enzymes was confirmed via intact protein MS (IP‐MS, Figure 4A)”; in test [5], “PLP binding of all overexpressed enzymes was confirmed via intact protein MS (IP‐MS, Figure 4A)”.

Take `NNCCc1ccccc1` [phenelzine]: the results for the IC50 in test [6] and in [7] were 53.1 ± 1.05 µM and 14.7 ± 1.22 µM, respectively.
